How the values were obtained:
[1] = Sequestration of L-lactate by D-lactic acid oligomers, tetrazolium indicator color test strips; conditions: for Tetrazolium indicator (L-lactic acid): room temperature, 2 minutes; for sequestration of L-lactate in vitro: summary statement
Description: Lactic acid concentration was measured by tetrazolium indicator color test strips (Accuvin, LLC, Napa, Calif.) from the reaction of L-lactic acid and […] in the presence of lactate dehydrogenase. Samples of D-lactic acid oligomers (n=2, n=3, n=4, n=5, and n=6) were weighed on truncated 100 microliter pipette tips. […] The reactions were carried out at room temperature for 2 minutes, then 20 microliters were applied to L-lactic acid test strips, and the results were read after 2 minutes.

[2] = earlier work (Goldberg, Weinberg 2017); cited from earlier work
cultured leukemia cells = conditions: earlier work (Goldberg, Weinberg 2016, 2017); cited from earlier work
HeLa cells = conditions: earlier work (Goldberg, Weinberg 2016, 2017); cited from earlier work
retinoblastoma cells = conditions: earlier work (Goldberg, Weinberg 2016, 2017); cited from earlier work
normal fibroblasts = conditions: at a similar hydrogen ion concentration; cited from earlier work
[3] = 5.0 mg oligomer in 40 microliters of 10 mM L-lactic acid

Q: Which “Tetrazolium indicator (L-lactic acid)” value [1, 3] does the source give for `CC(O)C(=O)OC(C)C(=O)OC(C)C(=O)OC(C)C(=O)OC(C)C(=O)OC(C)C(=O)O` [D-lactic acid n = 6, D-lactic acid hexamer] here?
A: greater than 400 mg/L

Q: What about the “sequestration of L-lactate in vitro” value [1] of the same molecule?
A: did not sequester L-lactate

Q: With `CC(O)C(=O)OC(C)C(=O)OC(C)C(=O)OC(C)C(=O)O` [D-lactic acid n = 4, D-lactic acid tetramer] as the molecule, how does the “Tetrazolium indicator (L-lactic acid)” value [1, 3] read?
A: greater than 400 mg/L

Q: And the “sequestration of L-lactate in vitro” value [1]?
A: did not sequester L-lactate

Q: What does the source list for `C[C@@H](O)C(=O)O[C@H](C)C(=O)O[C@H](C)C(=O)O` [D-lactic acid n = 3, D-lactic acid trimer]?
A: Tetrazolium indicator (L-lactic acid) [1, 3]: greater than 400 mg/L; sequestration of L-lactate in vitro [1]: did not sequester L-lactate

Q: What does the source list for `C[C@@H](O)C(=O)O[C@H](C)C(=O)O` [D-lactic acid dimer]?
A: Tetrazolium indicator (L-lactic acid) ([1]; 0.5 mg oligomer in 40 microliters of 10 mM L-lactic acid): 80 mg/L; Tetrazolium indicator (L-lactic acid) ([1]; 1.0 mg oligomer in 40 microliters of 10 mM L-lactic acid): no color change; Tetrazolium indicator (L-lactic acid) ([1]; 5.0 mg oligomer in 40 microliters of 10 mM L-lactic acid, result in words): no color change; Tetrazolium indicator (L-lactic acid) ([1]; 7.0 mg oligomer in 40 microliters of 10 mM L-lactic acid): no color change; sequestration of L-lactate [2]: “sequester or trap” L-lactate; killing of cultured leukemia cells (cultured leukemia cells): kill; killing of cultured HeLa cells (HeLa cells): kill; killing of cultured retinoblastoma cells (retinoblastoma cells): kill; cytotoxicity to normal fibroblasts compared with L-lactic acid (normal fibroblasts): less cytotoxic than L-lactic

Q: With `CC(O)C(=O)OC(C)C(=O)OC(C)C(=O)OC(C)C(=O)OC(C)C(=O)O` [D-lactic acid n = 5, D-lactic acid pentamer] as the molecule, how does the “Tetrazolium indicator (L-lactic acid)” value [1, 3] read?
A: greater than 400 mg/L

Q: What about the “sequestration of L-lactate in vitro” value [1] of the same molecule?
A: did not sequester L-lactate

Source: patent US20180273464A1, “SYNTHESIS AND IN VITRO ACTIVITY OF D-LACTIC ACID OLIGOMERS” (priority 2018, published 2018)
